Data as given in patent US11453697B1, “Cyclic di-nucleotide compounds as sting agonists” (Merck Sharp & Dohme Corp., priority 2015, dated 2022).
Like-named read-outs stand apart in the source and are kept apart here.

What was measured:
full-length HAQ STING = full-length HAQ STING (Homo sapiens (Human), UniProt Q86WV6, G230A/H232R/R293Q/R71H); assay: 3H-cGAMP filtration binding assay (HAQ STING); conditions: competition with tritiated cGAMP, HAQ STING membrane; read-out: EC50 (nM), 3H-cGAMP filtration binding assay for HAQ STING
Excerpt: The ability of compounds to bind STING is quantified by the ability to compete with tritiated cGAMP ligand for human STING receptor membrane using a radioactive filter-binding assay. The binding assay employs STING receptor obtained from Hi-Five cell membranes overexpressing full-length HAQ STING prepared in-house and tritiated cGAMP ligand also purified in-house.
The ability of compounds to bind STING is quantified by their ability to compete with tritiated cGAMP ligand for human STING receptor membrane using a radioactive filter-binding assay.
The basic HAQ STING filtration assay protocol is as follows:
Compound and membrane then preincubated for 60 min at RT to allow compound binding to equilibrate. Following equilibration, 8 nM of [^3H] c-GAMP ligand was prepared by diluting into assay buffer, and 50 uL of this working stock was then manually added to each well of the assay plate. […] The filter plates were then dried at 55° C. for 30 min using a pressurized VWR oven before 30 uL of Ultima GoldF scintillate was added to each well. Tritium levels for each reaction well were then measured using a PerkinElmer TopCount plate reader.
After normalization to controls, the percent activity for each compound concentration was calculated by measuring the amount of remaining radioactivity. The plot of percent activity versus the log of compound concentration was fit with a 4-parameter dose response equation to calculate EC50 values.

[1] = system: IFN-β secretion in THP1 cells; assay: IFN-β secretion in THP1 cell culture (5 h); type: cell-based, human
Method: The ability of compounds to stimulate the secretion of interferon-beta from THP1 cells was measured using a human IFN-β AlphaLISA kit (Perkin Elmer, Cat. No. AL265F). The basic protocol is as follows:
The cell viability and count was ascertained using a Beckman Coulter V-Cell XR cell counter. The cells suspension was centrifuged at 200×g for 5 min at RT. […] Subsequent liquid transfers were performed using either a Matrix electronic multichannel pipette or an Agilent Bravo Automated Liquid Handling Platform.
The assay was started by dispensing 40 μL of the previously prepared cell suspension into the wells of the plate containing compounds. After 5 h incubation at 37° C., 5% CO2 in a humidified atmosphere, the plate of cells and compounds was centrifuged at 200×g for 5 min at RT. […] To these supernatant-containing wells was added 10 μL of 5× Anti-Analyte Acceptor beads (50 μg/mL of AlphaLISA HiBlock Buffer) and incubated for 30 min at RT while shaking on an orbital plate shaker. To each well was added 10 μL of 5× Biotinylated Antibody Anti-analyte (5 nM in AlphaLISA HiBlock Buffer) and incubated on an orbital plate shaker for 60 min at RT or overnight at 4° C. To each well was added 25 μL of 2× SA-Donor beads (80 μg/mL in AlphaLISA HiBlock Buffer) and incubated for 30-45 min at RT in the dark while shaking on an orbital plate shaker. The plate was then read on a Perkin Elmer Envision (λex=680 nm, λem=[…]). The percent effect of the AlphaLISA signal at each compound concentration was calculated based on 30 uM cGAMP positive controls and 0.3% DMSO negative controls. The plot of percent effect versus the log of compound concentration was fit with a 4-parameter concentration response equation to calculate EC50 values.
Compounds of the disclosure were evaluated for IFN-β secretion in THP1 cell culture as described above.

[2] = IFN-β secretion in THP1 cell culture, 5 h, compound at 30 μM, percent activation relative to 2′3′-cGAMP

full-length HAQ STING, sequence (Q86WV6 other isoform, or with tags, fused parts or gaps, stated change not applied): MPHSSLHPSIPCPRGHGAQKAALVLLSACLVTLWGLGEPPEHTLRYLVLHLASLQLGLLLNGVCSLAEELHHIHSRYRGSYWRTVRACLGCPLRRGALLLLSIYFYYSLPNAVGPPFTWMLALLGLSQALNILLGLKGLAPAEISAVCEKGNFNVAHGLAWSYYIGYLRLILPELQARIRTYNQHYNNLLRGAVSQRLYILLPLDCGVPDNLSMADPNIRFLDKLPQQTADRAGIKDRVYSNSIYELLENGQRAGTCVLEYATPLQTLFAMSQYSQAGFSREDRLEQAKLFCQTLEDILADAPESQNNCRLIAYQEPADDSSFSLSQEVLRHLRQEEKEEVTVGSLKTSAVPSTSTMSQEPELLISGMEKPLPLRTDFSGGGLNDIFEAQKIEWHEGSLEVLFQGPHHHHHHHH

Row | EC50 (full-length HAQ STING) [nM] | Structure (SMILES) | % Effect at 30 μM relative to 2′3′-cGAMP [1, 2] [%] | % Effect at 30 μM relative to 2′3′-cGAMP [1] [%]
1 | 11.8 | Nc1ncc2ncn([C@@H]3O[C@@H]4COP(=O)(O)O[C@@H]5[C@H](O)[C@@H](COP(=O)(O)O[C@H]4[C@H]3O)O[C@H]5n3cnc4c(=O)[nH]c(N)nc43)c2n1 [Example 59, 2-amino-9-[(5R,7R,8R,12aR,14R,15R,15aS,16R)-14-(2-amino-9H-purin-9-yl)-2,10,15,16-tetrahydroxy-2,10-dioxidooctahydro-12H-5,8-methanofuro[3,2-l][1,3,6,9,11,2,10]pentaoxadiphosphacyclotetradecin-7-yl]-1,9-dihydro-6H-purin-6-one] | 76 | 
2 | 122 | Nc1nc2c(ncn2[C@@H]2O[C@@H]3COP(=O)(O)O[C@H]4[C@H](F)[C@H](n5cnc6c(=O)[nH]cnc65)O[C@@H]4COP(=O)(O)O[C@@H]2C3)c(=O)[nH]1 [Example 312, 2-amino-9-[(5S,7R,8R,12aR,14R,15S,15aR)-15-fluoro-2,10-dihydroxy-2,10-dioxido-14-(6-oxo-1,6-dihydro-9H-purin-9-yl)octahydro-12H-5,8-methanofuro[3,2-l] [1,3,6,9,11,2,10]pentaoxadiphosphacyclo-tetradecin-7-yl]-1,9-dihydro-6H-purin-6-one] | 90 | 
3 | 8.2 | Nc1nc2c(ncn2[C@@H]2O[C@@H]3COP(=O)(O)O[C@H]4C[C@H](n5cnc6c(=O)[nH]cnc65)O[C@@H]4COP(=O)(O)O[C@@H]2[C@@H]3F)c(=O)[nH]1 [Example 332, 2-amino-9-[(5R,7R,8S,12aR,14R,15aS,16R)-16-fluoro-2,10-dihydroxy-2,10-dioxido-14-(6-oxo-1,6-dihydro-9H-purin-9-yl)octahydro-12H-5,8-methanofuro[3,2-l][1,3,6,9,11,2,10]pentaoxadiphosphacy-clotetradecin-7-yl]-1,9-dihydro-6H-purin-6-one] | 113 | 
4 | < 1 | C#C[C@@]12COP(=O)(O)OC3C(O)[C@@H](COP(=O)(O)OC1C(O)[C@H](n1cnc4c(N)ncnc41)O2)O[C@H]3n1cnc2c(=O)[nH]c(N)nc21 (stereo in doubt) [Example 12, (5R,7R,8R,12aR,14R,15R,15aS,16R)-7-(2-amino-6-oxo-1,6-dihydro-9H-purin-9-yl)-14-(6-amino-9H-purin-9-yl)-12a-ethynyl-15,16-dihydroxyoctahydro-12H-5,8-methanofuro[3,2-l][1,3,6,9,11,2,10] pentaoxadiphosphacyclotetradecine-2,10-diolate 2,10-dioxide] | 89 | 
5 | 211 | Nc1nc2c(ncn2[C@@H]2O[C@@H]3COP(=O)(O)O[C@H]4C[C@H](n5cnc6c(=O)[nH]cnc65)O[C@@H]4COP(=O)(O)O[C@@H]2C3)c(=O)[nH]1 [Example 313, 2-amino-9-[(5S,7R,8R,12aR,14R,15aS)-2,10-dihydroxy-2,10-dioxido-14-(6-oxo-1,6-dihydro-9H-purin-9-yl)octahydro-12H-5,8-methanofuro[3,2-l] [1,3,6,9,11,2,10]pentaoxadiphosphacyclo-tetradecin-7-yl]-1,9-dihydro-6H-purin-6-one] | 117 | 
6 | < 1 | Nc1nc2c(nnn2[C@@H]2O[C@@H]3COP(=O)(O)O[C@H]4[C@@H](O)[C@H](n5cnc6c(N)ncnc65)O[C@@H]4COP(=O)(O)O[C@@H]2[C@@H]3O)c(=O)[nH]1 [Example 69, 5-amino-3-[(5R,7R,8R,12aR,14R,15R,15aS,16R)-14-(6-amino-9H-purin-9-yl)-2,10,15,16-tetrahydroxy-2,10-dioxidooctahydro-12H-5,8-methanofuro[3,2-l][1,3,6,9,11,2,10]pentaoxadiphosphacyclotetradecin-7-yl]-3,6-dihydro-7H-[1,2,3]triazolo[4,5-d]pyrimidin-7-one] |  | 
7 | 14.6 | Nc1nc2c(ncn2[C@@H]2O[C@@H]3COP(=O)(S)O[C@H]4[C@@H](O)[C@H](n5ccc6c(N)ncnc65)O[C@@H]4COP(=O)(S)O[C@@H]2C3)c(=O)[nH]1 (single isomer, unassigned) [Example 78] |  | 
8 | 25.9 | Nc1nc2c(ncn2[C@@H]2O[C@@H]3COP(=O)(S)OC4[C@@H](COP(=O)(S)O[C@H]2C3)O[C@@H](n2cnc3c(N)ncnc32)[C@H]4F)c(=O)[nH]1 (single isomer, unassigned) [Example 132] |  | 
9 | 103 | Nc1nc2c(ncn2[C@@H]2O[C@@H]3COP(=O)(S)O[C@H]4[C@@H](O)[C@H](n5ccc6c(N)ncnc65)O[C@@H]4COP(=O)(S)O[C@@H]2C3)c(=O)[nH]1 (single isomer, unassigned) [Example 79] |  | 
10 | 1.3 | Nc1nc2c(ncn2[C@@H]2O[C@@H]3COP(=O)(S)O[C@H]4[C@@H](O)[C@H](n5ccc6c(N)ncnc65)O[C@@H]4COP(=O)(S)O[C@@H]2C3)c(=O)[nH]1 (single isomer, unassigned) [Example 80] |  | 
11 |  | Nc1nc2c(ncn2[C@@H]2O[C@@H]3CO[P@@](=O)(S)O[C@H]4[C@H](F)[C@H](n5cnc6c(N)ncnc65)O[C@@H]4CO[P@@](=O)(S)O[C@@H]2[C@H]3F)c(=O)[nH]1 (single isomer, unassigned) [Example 144] | 114 | 
12 |  | Nc1nc2c(ncn2[C@@H]2O[C@@H]3COP(=O)(O)O[C@H]4[C@H](F)[C@H](n5nnc6c(=O)[nH]cnc65)O[C@@H]4COP(=O)(S)O[C@@H]2[C@@H]3F)c(=O)[nH]1 (single isomer, unassigned) [Example 347] | 225 | 
13 |  | Nc1nc2c(ncn2[C@@H]2O[C@@H]3COP(O)(=S)O[C@H]4[C@@H](F)[C@H](n5cnc6c(N)ncnc65)O[C@@H]4COP(O)(=S)O[C@@H]2[C@@H]3F)c(=O)[nH]1 (stereo partly drawn) [Example 260, 2-amino-9-[(5R,7R,8S,12aR,14R,15R,15aR,16R)-14-(6-amino-9H-purin-9-yl)-15,16-difluoro-2,10-dihydroxy-2,10-disulfidooctahydro-12H-5,8-methanofuro[3,2-l][1,3,6,9,11,2,10]pentaoxadiphosphacyclotetradecin-7-yl]-1,9-dihydro-6H-purin-6-one] | 113 | 
14 |  | Nc1nc2c(ncn2[C@@H]2O[C@@H]3COP(=O)(S)OC4C(O)[C@H](n5cnc6c(N)ncnc65)O[C@@H]4COP(=O)(S)OC2C3)c(=O)[nH]1 (single isomer, unassigned) [Example 87] | 99 | 
15 |  | Nc1nc2c(ncn2[C@@H]2O[C@@H]3COP(=O)(O)O[C@H]4[C@H](O)[C@H](n5cnc6c(N)ncnc65)O[C@@H]4COP(=O)(O)O[C@@H]2[C@@H]3O)c(=O)[nH]1 [Example 48, 2-amino-9-[(5R,7R,8R,12aR,14R,15S,15aS,16R)-14-(6-amino-9H-purin-9-yl)-2,10,15,16-tetrahydroxy-2,10-dioxidooctahydro-12H-5,8-methanofuro[3,2-l][1,3,6,9,11,2,10]pentaoxadiphosphacyclotetradecin-7-yl]-1,9-dihydro-6H-purin-6-one] |  | 104
16 | < 1 | Nc1nc2c(ncn2[C@@H]2O[C@@H]3CO[P@@](O)(=S)O[C@H]4[C@H](F)[C@H](n5cnc6c(N)ncnc65)O[C@@H]4CO[P@@](O)(=S)O[C@@H]2C3)c(=O)[nH]1 [Example 130, 2-amino-9-[(2R,5S,7R,8R,10R,12aR,14R,15S,15aR)-14-(6-amino-9H-purin-9-yl)-15-fluoro-2,10-dihydroxy-2,10-disulfidooctahydro-12H-5,8-methanofuro[3,2-l][1,3,6,9,11,2,10]pentaoxadiphosphacyclotetradecin-7-yl]-1,9-dihydro-6H-purin-6-one] |  | 
